Experimental findings from ChEMBL document CHEMBL1131285, “Quinolines as potent 5-lipoxygenase inhibitors: synthesis and biological profile of L-746,530” (Bioorg Med Chem Lett, 1998) are described below.

Each structure is given as a SMILES string. Some results are limits rather than exact numbers.

Broadly, the IC50 is the point on the concentration scale where inhibition reaches its midpoint. By ED50 is commonly meant the dose at which the effect has come halfway, by size or by number of responders. Low values mean greater potency, high ones weaker potency.

Experiment [1] in a line: Compound was evaluated for in vitro inhibition of leukotriene (LTB4) in human peripheral blood polymorphonuclear leukocytes (HPMN). It counts as functional.
For experiment [2], the target named is T1, Polyunsaturated fatty acid 5-lipoxygenase (Homo sapiens, UniProt P09917).
T1 sequence (P09917 whole entry): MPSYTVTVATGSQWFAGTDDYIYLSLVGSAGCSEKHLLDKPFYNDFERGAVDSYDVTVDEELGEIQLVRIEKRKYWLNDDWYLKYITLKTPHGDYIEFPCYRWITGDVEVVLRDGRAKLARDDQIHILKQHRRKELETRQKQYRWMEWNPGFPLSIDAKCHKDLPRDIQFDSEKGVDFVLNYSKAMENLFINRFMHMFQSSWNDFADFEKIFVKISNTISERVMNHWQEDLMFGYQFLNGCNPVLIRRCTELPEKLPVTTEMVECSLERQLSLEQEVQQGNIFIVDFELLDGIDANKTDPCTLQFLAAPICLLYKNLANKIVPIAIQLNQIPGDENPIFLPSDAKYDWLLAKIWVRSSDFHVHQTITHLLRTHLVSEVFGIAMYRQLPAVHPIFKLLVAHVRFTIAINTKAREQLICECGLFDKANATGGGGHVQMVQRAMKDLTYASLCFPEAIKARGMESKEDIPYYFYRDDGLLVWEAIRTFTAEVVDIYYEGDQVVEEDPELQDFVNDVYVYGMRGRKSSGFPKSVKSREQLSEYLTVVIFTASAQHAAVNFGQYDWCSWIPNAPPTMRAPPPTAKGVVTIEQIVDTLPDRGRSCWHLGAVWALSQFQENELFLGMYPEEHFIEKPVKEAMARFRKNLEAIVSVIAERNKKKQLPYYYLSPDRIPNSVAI
Nature of the experiment: Compound was evaluated for in vitro inhibition of recombinant human 5-lipoxygenase (5-LO).

Experiment [3] is filed under the species Homo sapiens. Nature of the experiment: Compound was evaluated for in vitro inhibition of leukotriene (LTB4) in human whole blood (HWB). Type of experiment: functional.
Experiment [4] relates to Rattus norvegicus. Nature of the experiment: The effect on the biosynthesis of leukotriene B4 in vivo was evaluated in the rat pleural cavity using a carrageenan-induced model of inflammation after oral administration at 6 hr. It counts as functional.

Consider `N#Cc1cc(-c2ccoc2)c2ccc(CSc3cc(F)cc(C4(O)CC5COC(C4)O5)c3)cc2n1` (stereo not given), for which the 50% inhibitory concentration (IC50) in experiment [1] amounted to 6 nM; in experiment [2] it was 124 nM; in experiment [3] it was 193 nM.
The like results for `N#Cc1cc2cc(OCc3cccc(C4(O)CC5COC(C4)O5)n3)ccc2c(-c2ccoc2)n1` (stereo not given) were, in that order, 18 nM, 1960 nM and 47 nM.
Consider `N#Cc1cc(-c2ccoc2)c2ccc(COc3cc(F)cc(C4(O)CC5COC(C4)O5)c3)cc2n1` (stereo not given), for which the 50% effective dose (ED50) in experiment [4] is below 0.1 mg/kg.
For `O=c1cc(-c2ccoc2)c2ccc(OCc3cccc(C4(O)CC5COC(C4)O5)n3)cc2n1Cc1ccccc1` (stereo not given), the IC50 in experiment [1] was 5.8 nM; in experiment [2] it was 102 nM; in experiment [3], 160 nM.
In turn, `N#Cc1cc(-c2ccoc2)c2ccc(OCc3cccc(C4(O)CC5COC(C4)O5)n3)cc2c1` (stereo not given) returned an IC50 in experiment [1] of 1.6 nM.
With `OC1(c2cccc(COc3ccc4c(-c5ccoc5)cncc4c3)n2)CC2COC(C1)O2` (stereo not given), the IC50 in experiment [1] was 10.3 nM; in experiment [2] it was 1460 nM; in experiment [3], 90 nM.
Turning to `N#Cc1cc(-c2ccoc2)c2ccc(OCc3cccc(C4(O)CC5COC(C4)O5)c3)cc2n1` (stereo not given), the IC50 in experiment [1] was 10 nM; in experiment [2], above 3000 nM; in experiment [3] it was 287 nM.
Turning to `N#Cc1cc(-c2ccoc2)c2ccc(OCc3cccc(C4(O)CC5COC(C4)O5)n3)cc2n1` (stereo not given), the IC50 in experiment [1] was determined as 4 nM; in experiment [2] it was 36 nM; in experiment [3], 103 nM.
